Results published in ChEMBL document CHEMBL1201862, “PubChem BioAssay data set” (2004).
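Protocol summary: plate cells (96-well), add compound at 5 concentrations, incubate 48 h, interpolate endpoints linearly. Abbreviation: GI50, concentration required for 50% inhibition of growth.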 Active and inactive are the calls of the source. No stated cut-off is given here; in the data, active = GI50 up to about 1.1 µM and inactive = higher.

Assays:
Assay in all cases: inhibition of tumour cell growth, NCI panel, 48 h
[1] = tested on: A498
[2] = tested on: ACHN
[3] = tested on: CAKI-1
[4] = tested on: COLO 205
[5] = tested on: DU-145
[6] = tested on: HL-60
[7] = tested on: HOP-62
[8] = tested on: KM12
[9] = tested on: MCF7
[10] = tested on: MOLT-4
[11] = tested on: NCI-H226
[12] = tested on: OVCAR-4
[13] = tested on: OVCAR-5
[14] = tested on: OVCAR-8
[15] = tested on: RPMI-8226
[16] = tested on: SK-MEL-2
[17] = tested on: SK-MEL-5
[18] = tested on: SNB-19
[19] = tested on: TK-10
[20] = tested on: UACC-257

Measured: GI50

C=CC1(CC[C@]2(c3ccc(OC)c(OC)c3)C=[N+]([O-])O[C@H](O[C@@H]3CCCC[C@H]3C(C)(C)c3ccccc3)C2)OCC(C)(C)CO1
inactive: [1] > 45 µM | [2] 16 µM | [3] 6.95 µM | [4] 16.9 µM | [5] 13.9 µM | [6] 1.97 µM | [7] 14.7 µM | [8] 14.3 µM | [9] 3.65 µM | [10] 3.78 µM | [11] 19.9 µM | [12] 11.3 µM | [13] 16.4 µM | [14] 7.64 µM | [15] 2.34 µM | [16] 12.6 µM | [17] 14.7 µM | [18] 21.9 µM | [19] 25.4 µM | [20] 18.8 µM

Nc1csc(-c2scc3c2OCCO3)c1N
inactive: [1] 17.6 µM | [2] 36.4 µM | [3] 32.1 µM | [4] 28.8 µM | [5] 19.8 µM | [6] 20.5 µM | [7] 15.6 µM | [8] 20.4 µM | [9] 16.4 µM | [10] 27.8 µM | [11] 17.3 µM | [12] 26.6 µM | [13] 17.6 µM | [14] 16.1 µM | [15] 16.9 µM | [16] 17.5 µM | [17] 14.9 µM | [18] 32.7 µM | [19] 33.1 µM | [20] 16.7 µM
